Like-named read-outs stand apart in the source and are kept apart here. Each block holds one compound with its values, some of them ahead of it. Where a SMILES comes first, the peptide text is derived from it. Bridges are numbered along the chain shown (N, C = ends). [ ]: non-standard residue; d: D form. The star is where a group is joined. Docosanoyl = CCCCCCCCCCCCCCCCCCCCCC(=O)*; Oic = O=C(O)[C@@H]1C[C@@H]2CCCC[C@@H]2N1; Arachidoyl = CCCCCCCCCCCCCCCCCCCC(=O)*; Stearoyl = CCCCCCCCCCCCCCCCCC(=O)*; Palmitoyl = CCCCCCCCCCCCCCCC(=O)*; Tic = O=C(O)[C@@H]1Cc2ccccc2CN1; dTic = O=C(O)[C@H]1Cc2ccccc2CN1; Dab = NCC[C@H](N)C(=O)O
Experiments:
[1] = test system: WI38 (non-transformed fibroblasts) cells, wtp53; format: cell-based; conditions: 48 h
Procedure: (§1) Cells were cultured in 96 wells plates with 2500-4000 cells/well. Serial dilutions of different peptides were added and the plates incubated for additional 48 h at 37° C. Then medium was removed and cell viability was determined by staining the cells with crystal violet (0.05%) in methanol/PBS (1:5, v/v), for 10 min, followed by 3 washes with PBS. 10% acetic acid was added to each well for 10 min. OD was determined at 595 nm.
(§2) The IC50 tables presented in FIGS. 17-20 are from several representative experiments performed on cell lines expressing several p53 hotspot mutations, as well as control non-transformed cells: […]

[2] = test system: PC9 (lung carcinoma) cells, p53R248Q; format: cell-based; conditions: 48 h
Procedure: as §1, §2

[3] = test system: SW-480 (colon carcinoma) cells, p53R273H, P309S; format: cell-based; conditions: 48 h
Procedure: as §1, §2

[4] = test system: RXF-393 (renal carcinoma) cells, p53R175H; format: cell-based, human; conditions: for IC50: 48 h; for increase in efficacy relative to pCAP-553: FIG. 17, effect of fatty acid length
Procedure: as §1
(§3) The IC50 tables presented in FIGS. 17-20 are from several representative experiments performed on cell lines expressing several p53 hotspot mutations, as well as control non-transformed cells:
Fatty acid position. Lead peptides were modified with N-terminal myristic acid to enable the penetration of peptides across the cell membrane. Although myristic acid is usually the default choice for cell permeability, additional options were explored of longer fatty acids and to examine the effect on peptide efficacy in terms of cancer cell killing. A standard crystal violet viability test was performed on human renal carcinoma RXF-393 cells, comparing the original pCAP-553, which has myristic acid (C14), with 4 derivative peptides modified with longer fatty acid chains: palmitic (C16), stearic (C18), […] (C20) and behenic (C22).

[5] = test system: PANC1 (pancreatic carcinoma) cells, p53R273H; format: cell-based; conditions: 48 h
Procedure: as §1, §2

[6] = test system: panel of cell lines expressing mutp53; format: cell-based; conditions: for IC50: 48 h
Procedure: as §1, §3
Proline residue position—Based on alanine scanning and molecular dynamics analyses, it is believed that the proline residue at the 6th position from the N-terminal is critical for the peptide's 3D structure and provides some rigidity required for peptide binding and activity. Therefore, it was hypothesized that a change in orientation or tetrahedral angle might increase the affinity of the peptide for p53. Six new peptides were synthesized replacing this proline residue with proline analogs (pCAPs 708-712, and pCAP-716, SEQ ID NOS: 6-10 and 14, respectively). This set of peptides was tested for activity on a panel of cell lines expressing mutp53, and compared it to pCAP-674 (SEQ ID NO: 27) and to the scrambled sequence peptides pCAP-721 (SEQ ID NO: 19) and pCAP-722 (SEQ ID NO: 20).

[7] = test system: MIA PaCa-2 (pancreatic carcinoma) cells, p53R248W; format: cell-based; conditions: 48 h
Procedure: as §1, §2

IC50 [2]: 1500 nM
IC50 [3]: 3000 nM
IC50 [4]: 1500 nM
Compound: CCCCCCCCCCCCCCCCCCCCCC(=O)N[C@@H](CCCNC(=N)N)C(=O)N[C@@H](CCCNC(=N)N)C(=O)N[C@@H](Cc1c[nH]cn1)C(=O)N[C@@H](CO)C(=O)N[C@@H](C(=O)N1CCC[C@H]1C(=O)N[C@@H](CCN)C(=O)N1CCC[C@H]1C(=O)N[C@@H](CC(=O)O)C(N)=O)C(C)C [pCAP-707, Beh-RRHSvP(Dab)PD-NH2] (Docosanoyl-RRHS[dV]P[Dab]PD-NH2)
IC50 [1]: 12 µM

IC50 [2]: 260 nM
IC50 [3]: 800 nM
IC50 [4]: 400 nM
Compound: CCCCCCCCCCCCCCCCCCCC(=O)N[C@@H](CCCNC(=N)N)C(=O)N[C@@H](CCCNC(=N)N)C(=O)N[C@@H](Cc1c[nH]cn1)C(=O)N[C@@H](CO)C(=O)N[C@@H](C(=O)N1CCC[C@H]1C(=O)N[C@@H](CCN)C(=O)N1CCC[C@H]1C(=O)N[C@@H](CC(=O)O)C(N)=O)C(C)C [pCAP-706, arc-RRHSvP(Dab)PD-NH2] (Arachidoyl-RRHS[dV]P[Dab]PD-NH2)
IC50 [1]: 15 µM

IC50 [6]: 120 to 1300 nM
IC50 [7]: 500 nM
Compound: CCCCCCCCCCCCCCCCCC(=O)N[C@@H](CCCNC(=N)N)C(=O)N[C@@H](CCCNC(=N)N)C(=O)N[C@@H](Cc1c[nH]cn1)C(=O)N[C@@H](CO)C(=O)N[C@@H](C(=O)N1CCC[C@@H]1C(=O)N[C@@H](CCN)C(=O)N1CCC[C@H]1C(=O)N[C@@H](CC(=O)O)C(N)=O)C(C)C [pCAP-708, str-RRHSvp(Dab)PD-NH2] (Stearoyl-RRHS[dV][dP][Dab]PD-NH2)
activity in viability assays compared with other peptides (in words) [6]: consistently modestly improved activity over pCAP-674
activity in viability assays compared with other peptides (in words) ([6]; listed as 708): highest activity
IC50 [1]: 32 µM

IC50 [2]: 210 nM
IC50 [3]: 600 nM
Compound: CCCCCCCCCCCCCCCCCC(=O)N[C@@H](CCCNC(=N)N)C(=O)N[C@@H](CCCNC(=N)N)C(=O)N[C@@H](Cc1c[nH]cn1)C(=O)N[C@@H](CO)C(=O)N[C@@H](C(=O)N1CCC[C@H]1C(=O)N[C@@H](CCN)C(=O)N1CCC[C@H]1C(=O)N[C@@H](CC(=O)O)C(N)=O)C(C)C [pCAP-674, str-RRHSvP(Dab)PD-NH2] (Stearoyl-RRHS[dV]P[Dab]PD-NH2)
IC50 [1]: 36 µM
increase in efficacy relative to pCAP-553 [4]: four-fold increase in efficacy

IC50 [2]: 720 nM
IC50 [5]: 2210 nM
IC50 [4]: 370 nM
Compound: CCCCCCCCCCCCCCCCCC(=O)N[C@@H](CCCNC(=N)N)C(=O)N[C@@H](CCCNC(=N)N)C(=O)N[C@@H](Cc1c[nH]cn1)C(=O)N[C@@H](CO)C(=O)N[C@@H](C(=O)N1CCC[C@H]1C(=O)N[C@@H](CCN)C(=O)N1CCC[C@H]1C(=O)N[C@@H](CC(=O)O)C(N)=O)C(C)C [pCAP-718, str-RRHSvP(Dab)PD-NH2 ion ex] (Stearoyl-RRHS[dV]P[Dab]PD-NH2)
IC50 [1]: > 40 µM

Continued, compound first:

Compound: CCCCCCCCCCCCCCCCCC(=O)N[C@@H](CCCNC(=N)N)C(=O)N[C@@H](CC(=O)O)C(=O)N1CCC[C@H]1C(=O)N[C@@H](Cc1c[nH]cn1)C(=O)N[C@@H](C(=O)N[C@@H](CO)C(=O)N1CCC[C@H]1C(=O)N[C@@H](CCCNC(=N)N)C(=O)N[C@@H](CCN)C(N)=O)C(C)C [pCAP-723, str-RDPHvSPR(Dab)-NH2, reference compound] (Stearoyl-RDPH[dV]SPR[Dab]-NH2)
IC50 [1]: > 40 µM
IC50 [2]: > 40000 nM
IC50 [5]: > 40000 nM
IC50 [4]: > 40000 nM

Compound: CCCCCCCCCCCCCCCCCC(=O)N[C@@H](CCCNC(=N)N)C(=O)N[C@@H](CCCNC(=N)N)C(=O)N[C@@H](Cc1c[nH]cn1)C(=O)N[C@@H](CO)C(=O)N[C@H](CCCCN)C(=O)N1Cc2ccccc2C[C@@H]1C(=O)N[C@@H](CCN)C(=O)N1CCC[C@H]1C(=O)N[C@@H](CC(=O)O)C(N)=O [pCAP-719, str-RRHSk(tic)(Dab)PD-NH2] (Stearoyl-RRHS[dK][dTic][Dab]PD-NH2)
IC50 [1]: 29 µM
IC50 [2]: 570 nM
IC50 [5]: 2180 nM
IC50 [4]: 460 nM

Compound: CCCCCCCCCCCCCCCCCC(=O)N[C@@H](CCCNC(=N)N)C(=O)N[C@@H](CCCNC(=N)N)C(=O)N[C@H]1CCCCNC(=O)[C@H](CC(=O)O)NC(=O)[C@@H]2CCCN2C(=O)[C@H](CCN)NC(=O)[C@@H]2CCCN2C(=O)[C@@H](C(C)C)NC(=O)[C@H](CO)NC(=O)[C@H](Cc2c[nH]cn2)NC1=O [pCAP-715, str-RRKHSvP(Dab)PD-Cyc] (Stearoyl-RRKHS[dV]P[Dab]PD; lactam 3-C)
IC50 [1]: > 40 µM
IC50 [2]: 250 nM
IC50 [3]: 540 nM
IC50 [4]: 480 nM

Compound: CCCCCCCCCCCCCC(=O)N[C@@H](CCCNC(=N)N)C(=O)N[C@@H](CCCNC(=N)N)C(=O)N[C@@H](Cc1c[nH]cn1)C(=O)N[C@@H](CO)C(=O)N[C@H](C(=O)N1CCC[C@H]1C(=O)N[C@@H](Cc1c[nH]cn1)C(=O)N1CCC[C@H]1C(=O)N[C@@H](CC(=O)O)C(=O)O)[C@@H](C)O [pCAP-250, myr-RRHSTPHPD]
IC50 [7]: 1000 nM
IC50 [1]: > 40 µM

Compound: CCCCCCCCCCCCCCCCCC(=O)N[C@@H](CCCNC(=N)N)C(=O)N[C@@H](CCCNC(=N)N)C(=O)N[C@@H](Cc1c[nH]cn1)C(=O)N[C@@H](CO)C(=O)N[C@@H](C(=O)N1Cc2ccccc2C[C@H]1C(=O)N[C@@H](CCN)C(=O)N1CCC[C@H]1C(=O)N[C@@H](CC(=O)O)C(N)=O)C(C)C [pCAP-712, str-RRHSv(Tic)(Dab)PD-NH2] (Stearoyl-RRHS[dV][Tic][Dab]PD-NH2)
activity in viability assays compared with other peptides (in words) [6]: highest activity
IC50 [7]: 1000 nM
IC50 [2]: 1200 nM
IC50 [3]: 1500 nM
IC50 [4]: 600 nM

Compound: CCCCCCCCCCCCCCCCCC(=O)N[C@@H](CCCNC(=N)N)C(=O)N[C@@H](CCCNC(=N)N)C(=O)N[C@@H](Cc1c[nH]cn1)C(=O)N[C@@H](CO)C(=O)N[C@H]1CCCCNC(=O)[C@H](CC(=O)O)NC(=O)[C@@H]2CCCN2C(=O)[C@H](CCN)NC(=O)[C@@H]2CCCN2C1=O [pCAP-713, str-RRHSKP(Dab)PD-Cyc] (Stearoyl-RRHSKP[Dab]PD; lactam 5-C)
activity in viability assays compared with other peptides (in words) [6]: highest activity
IC50 [6]: 100 to 1000 nM
increase in activity over pCAP-674 ([6]; FIGS. 18-20): 1.5-3 folds
increase in activity over the original pCAP-553 ([6]; FIGS. 18-20): 4-10 folds
IC50 [7]: 300 nM
IC50 [5]: 1050 nM

Compound: CCCCCCCCCCCCCCCCCC(=O)N[C@@H](CCCNC(=N)N)C(=O)N[C@@H](CCCNC(=N)N)C(=O)N[C@@H](Cc1c[nH]cn1)C(=O)N[C@@H](CO)C(=O)N[C@@H](C(=O)N1CCC[C@@H]1C(=O)N[C@@H](CCN)C(=O)N1CCC[C@H]1C(=O)N[C@H](CC(=O)O)C(=O)NCC(=O)N[C@@H](CCCNC(=N)N)C(=O)O)C(C)C [pCAP-721, str-RRHSvp(Dab)PdGR] (Stearoyl-RRHS[dV][dP][Dab]P[dD]GR-OH; C-terminus assumed)
activity in viability assays compared with other peptides (in words) [6]: comparable activity to pCAP-717
IC50 [7]: 300 nM
IC50 [2]: 800 nM
IC50 [3]: 1200 nM
IC50 [4]: 300 nM

Compound: pam-RRHSvP(Dab)PD-NH2 (Palmitoyl-RRHS[dV]P[Dab]PD-NH2) [pCAP-673, pam—Palmitic]
increase in efficacy relative to pCAP-553 [4]: two-fold increase in efficacy

Compound: CCCCCCCCCCCCCCCCCC(=O)N[C@@H](CCCNC(=N)N)C(=O)N[C@@H](CCCNC(=N)N)C(=O)N[C@@H](Cc1c[nH]cn1)C(=O)N[C@@H](CO)C(=O)N[C@@H](C(=O)N1[C@H](C(=O)N[C@@H](CCN)C(=O)N2CCC[C@H]2C(=O)N[C@@H](CC(=O)O)C(N)=O)C[C@@H]2CCCC[C@@H]21)C(C)C [pCAP-711, str-RRHSv(Oic)(Dab)PD] (Stearoyl-RRHS[dV][Oic][Dab]PD-NH2; N-terminus and C-terminus assumed)
IC50 [1]: > 40 µM
IC50 [2]: 1600 nM
IC50 [3]: 3000 nM
IC50 [4]: 2600 nM

Compound: CCCCCCCCCCCCCCCCCC(=O)N[C@@H](CCCNC(=N)N)C(=O)N[C@@H](CCCNC(=N)N)C(=O)N[C@H]1CCCCNC(=O)[C@H](CC(=O)O)NC(=O)[C@@H]2CCCN2C(=O)[C@H](CCN)NC(=O)[C@@H]2CCCN2C(=O)[C@@H](C(C)C)NC(=O)[C@H](CO)NC1=O [pCAP-714, str-RRKSvP(Dab)PD-Cyc] (Stearoyl-RRKS[dV]P[Dab]PD; lactam 3-C)
IC50 [1]: > 40 µM
IC50 [2]: 800 nM
IC50 [3]: 1090 nM
IC50 [4]: 570 nM

— patent publication US20230127559A1, “PEPTIDE ANALOGS AND USE OF SAME IN TREATING DISEASES, DISORDERS OR CONDITIONS ASSOCIATED WITH MUTANT P53 PROTEIN” (YEDA RESEARCH AND DEVELOPMENT CO. LTD., priority 2020, published 2023)
